Laboratory results as given in patent publication US9777005B2 (Takeda Pharmaceutical Company Limited, priority 2012, dated 2017).

Target: T1, human M1 receptor (hCHRM1) (Homo sapiens, UniProt P11229)
T1 construct: expressed in transfected cells; host or cells: CHO-K1
T1 sequence (P11229 1-460): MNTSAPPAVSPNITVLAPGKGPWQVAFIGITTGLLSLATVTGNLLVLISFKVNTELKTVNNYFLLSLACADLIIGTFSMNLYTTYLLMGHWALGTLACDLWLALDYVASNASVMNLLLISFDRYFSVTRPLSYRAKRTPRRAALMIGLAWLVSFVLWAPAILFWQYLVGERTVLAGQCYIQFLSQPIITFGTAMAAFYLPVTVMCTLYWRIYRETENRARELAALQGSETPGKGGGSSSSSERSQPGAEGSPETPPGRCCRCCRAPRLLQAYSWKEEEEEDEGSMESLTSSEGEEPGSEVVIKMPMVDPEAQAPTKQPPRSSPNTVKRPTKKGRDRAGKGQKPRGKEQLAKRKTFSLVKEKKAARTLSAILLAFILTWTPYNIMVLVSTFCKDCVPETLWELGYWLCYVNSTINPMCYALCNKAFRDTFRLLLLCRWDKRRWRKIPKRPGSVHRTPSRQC
Assay: Measurement of M1 receptor positive allosteric modulator (M1PAM) activity, calcium fluorescence (FLIPRtetra) in CHO-K1 cells in the presence of acetylcholine at EC20
Assay type: cell-based
Conditions: in the presence of acetylcholine at EC20 (final 0.6 nM), CHO-K1 cells expressing hCHRM1; for EC50: inflection point of M1PAM activity, read-out: IP value; for activity (%) at 10 μM: test compound 10 μM
Outline: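 PAM activity was measured as calcium flux by FLIPRtetra over 1 min after co-addition of compound and EC20 acetylcholine (final 0.6 nM) to Fluo-4-loaded hCHRM1 CHO-K1 cells. The response was scaled between DMSO (0%) and 1 μM acetylcholine (100%), and the inflection point of the concentration curve gives the IP value.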

| Structure (SMILES) | EC50 | activity (%) at 10 μM |
| --- | --- | --- |
| Cn1cc(-c2ccc(CN3Cc4ccnc(Oc5c(F)cccc5Cl)c4C3=O)cc2)nn1 [Example 231, 4-(2-chloro-6-fluorophenoxy)-2-(4-(1-methyl-1H-1,2,3-triazol-4-yl)benzyl)-1,2-dihydro-3H-pyrrolo[3,4-c]pyridin-3-one] | 24 nM | 106% |
| O=C1c2c(ccnc2OCC2CCCO2)CN1Cc1ccc(-n2cc(F)cn2)cc1 (stereo not drawn) [Example 234, 2-(4-(4-fluoro-1H-pyrazol-1-yl)benzyl)-4-((tetrahydrofuran-2-yl)methoxy)-1,2-dihydro-3H-pyrrolo[3,4-c]pyridin-3-one] | 38 nM | 91% |
| Cc1nn(C)cc1-c1ccc(CN2Cc3cccc(O[C@@H]4COCC[C@H]4O)c3C2=O)cc1 [Example 251, 1,5-anhydro-2-deoxy-4-O-(2-(4-(1,3-dimethyl-1H-pyrazol-4-yl)benzyl)-3-oxo-2,3-dihydro-1H-isoindol-4-yl)-threo-pentitol] | 7.5 nM | 117% |
| Cc1nn(C)cc1-c1ccc(CN2Cc3ccnc(OCC4CCCCO4)c3C2=O)cc1 (stereo not drawn) [Example 252, 2-(4-(1,3-dimethyl-1H-pyrazol-4-yl)benzyl)-4-((tetrahydro-2H-pyran-2-yl)methoxy)-1,2-dihydro-3H-pyrrolo[3,4-c]pyridin-3-one] | 7.6 nM | 99% |
| Cn1ccc(-c2ccc(CN3Cc4ccnc(OCC5CCCCO5)c4C3=O)cc2)n1 (stereo not drawn) [Example 253, 2-(4-(1-methyl-1H-pyrazol-3-yl)benzyl)-4-((tetrahydro-2H-pyran-2-yl)methoxy)-1,2-dihydro-3H-pyrrolo[3,4-c]pyridin-3-one] | 22 nM | 100% |
| Cn1cc(-c2ccc(CN3Cc4ccnc(OCCC5CC5)c4C3=O)cc2)nn1 [Example 254, 4-(2-cyclopropylethoxy)-2-(4-(1-methyl-1H-1,2,3-triazol-4-yl)benzyl)-1,2-dihydro-3H-pyrrolo[3,4-c]pyridin-3-one] | 67 nM | 110% |
| Cn1cc(-c2ccc(CN3Cc4ccnc(OCCC5CC5)c4C3=O)c(F)c2)nn1 [Example 260, 4-(2-cyclopropylethoxy)-2-(2-fluoro-4-(1-methyl-1H-1,2,3-triazol-4-yl)benzyl)-1,2-dihydro-3H-pyrrolo[3,4-c]pyridin-3-one] | 45 nM | 109% |
| CCC(O)COc1cccc2c1C(=O)N(Cc1ccc(-c3cnn(C)c3)cc1)C2 (stereo not drawn) [Example 261, 7-(2-hydroxybutoxy)-2-(4-(1-methyl-1H-pyrazol-4-yl)benzyl)isoindolin-1-one] | 25 nM | 98% |
| Cc1nn(C)cc1-c1ccc(CN2Cc3ccnc(OCC4CCOCC4)c3C2=O)c(F)c1 [Example 262, 2-(4-(1,3-dimethyl-1H-pyrazol-4-yl)-2-fluorobenzyl)-4-((tetrahydro-2H-pyran-4-yl)methoxy)-1,2-dihydro-3H-pyrrolo[3,4-c]pyridin-3-one] | 54 nM | 107% |
| Cn1cc(-c2ccc(CN3Cc4ccnc(OCC5CCC5)c4C3=O)c(F)c2)nn1 [Example 263, 4-(cyclobutylmethoxy)-2-(2-fluoro-4-(1-methyl-1H-1,2,3-triazol-4-yl)benzyl)-1,2-dihydro-3H-pyrrolo[3,4-c]pyridin-3-one] | 41 nM | 106% |
| Cc1cc(-c2cnc(CN3Cc4cccc(Oc5c(F)cccc5F)c4C3=O)c(F)c2)ccn1 [Example 264, 7-(2,6-difluorophenoxy)-2-((5-fluoro-2′-methyl-3,4′-bipyridin-6-yl)methyl)isoindolin-1-one] | 140 nM | 92% |
| Cc1nn(C)cc1-c1ccc(CN2Cc3ccnc(OCC4CCOC4)c3C2=O)cc1 (stereo not drawn) [Example 265, 2-(4-(1,3-dimethyl-1H-pyrazol-4-yl)benzyl)-4-((tetrahydrofuran-3-yl)methoxy)-1,2-dihydro-3H-pyrrolo[3,4-c]pyridin-3-one] | 24 nM | 96% |
| Cc1cc(-c2ccc(CN3Cc4ccnc(OCC5CCOC5)c4C3=O)cc2)ccn1.Cl (stereo not drawn) [Example 266, 2-(4-(2-methylpyridin-4-yl)benzyl)-4-((tetrahydrofuran-3-yl)methoxy)-1,2-dihydro-3H-pyrrolo[3,4-c]pyridin-3-one hydrochloride] | 45 nM | 100% |
| Cn1ccc(-c2ccc(CN3Cc4cccc(O[C@@H]5CCOC[C@H]5O)c4C3=O)cc2)n1 [Example 272, 1,5-anhydro-2-deoxy-3-O-(2-(4-(1-methyl-1H-pyrazol-3-yl)benzyl)-3-oxo-2,3-dihydro-1H-isoindol-4-yl)-threo-pentitol] | 6.5 nM | 107% |
| Cn1ccc(-c2ccc(CN3Cc4cccc(O[C@@H]5COCC[C@H]5O)c4C3=O)cc2)n1 [Example 273, 1,5-anhydro-2-deoxy-4-O-(2-(4-(1-methyl-1H-pyrazol-3-yl)benzyl)-3-oxo-2,3-dihydro-1H-isoindol-4-yl)-threo-pentitol] | 8.5 nM | 103% |
| Cc1nn(C)cc1-c1ccc(CN2Cc3ccnc(Oc4c(F)cccc4Cl)c3C2=O)c(F)c1 [Example 280, 4-(2-chloro-6-fluorophenoxy)-2-(4-(1,3-dimethyl-1H-pyrazol-4-yl)-2-fluorobenzyl)-1,2-dihydro-3H-pyrrolo[3,4-c]pyridin-3-one] | 26 nM | 110% |
| Cc1nn(C)cc1-c1ccc(CN2Cc3ccnc(Oc4c(F)cccc4Cl)c3C2=O)cc1 [Example 281, 4-(2-chloro-6-fluorophenoxy)-2-(4-(1,3-dimethyl-1H-pyrazol-4-yl)benzyl)-1,2-dihydro-3H-pyrrolo[3,4-c]pyridin-3-one] | 65 nM | 108% |
| COc1ccc(F)c(Oc2nccc3c2C(=O)N(Cc2ccc(-c4cn(C)nc4C)cc2F)C3)c1F [Example 283, 4-(2,6-difluoro-3-methoxyphenoxy)-2-(4-(1,3-dimethyl-1H-pyrazol-4-yl)-2-fluorobenzyl)-1,2-dihydro-3H-pyrrolo[3,4-c]pyridin-3-one] | 10 nM | 97% |
| O=C1c2c(ccnc2OCC2CCCO2)CN1Cc1ccc(Br)cc1 (stereo not drawn) [Example 284, 2-(4-bromobenzyl)-4-((tetrahydrofuran-2-yl)methoxy)-1,2-dihydro-3H-pyrrolo[3,4-c]pyridin-3-one] | 340 nM | 94% |
| Cn1cc(-c2ccc(CN3Cc4ccnc(OCC5CCCO5)c4C3=O)cc2)cn1 (stereo not drawn) [Example 285] | 10 nM | 95% |
| O=C1c2c(ccnc2OCC2CCCO2)CN1Cc1ccc(-c2cn[nH]c2)cc1 (stereo not drawn) [Example 286, 2-(4-(1H-pyrazol-4-yl)benzyl)-4-((tetrahydrofuran-2-yl)methoxy)-1,2-dihydro-3H-pyrrolo[3,4-c]pyridin-3-one] | 13 nM | 99% |
| O=C1c2c(ccnc2OCC2CCCO2)CN1Cc1ccc(-c2cnn(CC(F)(F)F)c2)cc1 (stereo not drawn) [Example 287, 4-((tetrahydrofuran-2-yl)methoxy)-2-(4-(1-(2,2,2-trifluoroethyl)-1H-pyrazol-4-yl)benzyl)-1,2-dihydro-3H-pyrrolo[3,4-c]pyridin-3-one] | 10 nM | 99% |
| O=C1c2c(ccnc2OCC2CCCO2)CN1Cc1ccc(-c2cnn(CC3CC3)c2)cc1 (stereo not drawn) [Example 288, 2-(4-(1-(cyclopropylmethyl)-1H-pyrazol-4-yl)benzyl)-4-((tetrahydrofuran-2-yl)methoxy)-1,2-dihydro-3H-pyrrolo[3,4-c]pyridin-3-one] | 12 nM | 103% |
| O=C1c2c(ccnc2OCC2CCCO2)CN1Cc1ccc(-c2cnn3ccccc23)cc1 (stereo not drawn) [Example 289, 2-(4-(pyrazolo[1,5-a]pyridin-3-yl)benzyl)-4-((tetrahydrofuran-2-yl)methoxy)-1,2-dihydro-3H-pyrrolo[3,4-c]pyridin-3-one] | 4.7 nM | 89% |
| Cc1cc(-c2ccc(CN3Cc4ccnc(Oc5cc(CO)ccc5F)c4C3=O)cc2)ccn1 [Example 290, 4-(2-fluoro-5-(hydroxymethyl)phenoxy)-2-(4-(2-methylpyridin-4-yl)benzyl)-1,2-dihydro-3H-pyrrolo[3,4-c]pyridin-3-one] | 44 nM | 91% |
| COCc1ccc(F)c(Oc2nccc3c2C(=O)N(Cc2ccc(-c4ccnc(C)c4)cc2)C3)c1 [Example 291, 4-(2-fluoro-5-(methoxymethyl)phenoxy)-2-(4-(2-methylpyridin-4-yl)benzyl)-1,2-dihydro-3H-pyrrolo[3,4-c]pyridin-3-one] | 34 nM | 91% |
| O=C1c2c(ccnc2OCC2CCCO2)CN1Cc1ccc(-c2cnn3c2CCCC3)cc1 (stereo not drawn) [Example 296, 4-((tetrahydrofuran-2-yl)methoxy)-2-(4-(4,5,6,7-tetrahydropyrazolo[1,5-a]pyridin-3-yl)benzyl)-1,2-dihydro-3H-pyrrolo[3,4-c]pyridin-3-one] | 12 nM | 92% |
